# According to US20150017665A1, “Peptides and Methods for Detecting MPO-ANCA” (The University of North Carolina at Chapel Hill, priority 2012, published 2015):
# B1: digested CP: ceruloplasmin digested with plasmin in vitro to produce a 50 kD fragment (protein)
# chain: SVPPSASHVAPTETFTYEWTVPKEVGPTNADPVCLAKMYYSAVEPTKDIFTGLIGPMKICKKGSLHANGRQKDVDKEFYLFPTVFDENESLLLEDNIRMFTTAPDQVDKEDEDFQESNKMHSMNGFMYGNQPGLTMCKGDSVVWYLFSAGNEADVHGIYFSGNTYLWRGERRDTANLFPQTSLTLHMWPDTEGTFNVECLTTDHYTGGMKQKYTVNQCRRQSEDSTFYLGERTYYIAAVEVEWDYSPQREWEKELHHLQEQNVSNAFLDKGEFYIGSKYKKVVYRQYTDSTFRVPVERKAEEEHLGILGPQLHADVGDKVKIIFKNMATRPYSIHAHGVQTESSTVTPTLPGETLTYVWKIPERSGAGTEDSACIPWAYYSTVDQVKDLYSGLIGPLIVCRRPYL
# Key:
# MPO-ANCA [1] = experiment: Peptide ELISA with total IgG (Chapel Hill and Groningen); type: binding, human; conditions: for MPO-ANCA specific for the epitope detected by ELISA, patients positive/tested: isolated Ig
# Protocol: A total of 195 IgG samples were tested by native MPO or peptide ELISA. Samples included those from healthy controls (n=59), active disease (n=80) and remission patients (n=56). Total IgG was added to wells (2 μg/well) precoated with 1-2 μg peptide (UNC-CH peptide synthesis core). Goat anti-human with alkaline phosphatase conjugate secondary antibody specific to IgG (H+L) (Millipore, Billerica, Mass.) (1:10,000) was added and detected using 1-Step PNPP substrate (Thermo Scientific) and read at λ=405 nm after 30 min. Identical peptides were used in ELISAs at both locations; all other substrates used to test NL cohort samples by ELISAs were prepared in Groningen. Total IgG (1:500˜2 mg/well) was added to precoated wells blocked with 1% BSA. Secondary antibody, goat anti-human conjugated with alkaline phosphatase (A5403; Sigma-Aldrich) (1:5000), was added and detected using p-nitrophenyl-phosphate disodium substrate.
# [2] = test system: IgG from ANCA-negative AAV patients; experiment: Epitope excision MS of ANCA-negative IgG with whole leukocyte lysate; type: binding, human; conditions: total Ig from ANCA-negative AAV patients
# Protocol: (§1) Mass spectrometry analysis of ANCA-negative IgG and mouse IgG samples were conducted as above. With the exception of protein substrate, immobilized ANCA-negative IgG were exposed to whole leukocyte lysate preparation from a healthy donor and mouse IgG to recombinant mouse MPO (R&D Systems).
# A variation of epitope excision MS for MPO-ANCA was adapted into a ‘discovery’ tool for identifying unknown autoantigens in ANCA-negative AAV, which presents clinically as vasculitis although with a negative serology for MPO-ANCA and PR3-ANCA. ANCA-negative AAV patients were identified by retrospective review of the medical records, with criteria of histological evidence of vasculitis and negative serological test results from the UNC Hospital clinical laboratory. As an additional measure, sera samples selected for analysis were retested for ANCA reactivity by the laboratory of Dr. John Niles, Massachusetts General Hospital, Boston, USA and were confirmed to be ANCA-negative. Protein lysate of total peripheral blood leukocytes were probed for antigen/s that were reactive with purified total Ig from ANCA-negative AAV patients' sera (FIG. 5A). […] MPO-ANCA specific for this epitope were detected by ELISA using isolated Ig from 8/10 UNC AAV patients and from 6/11 NL AAV patients (Table 2).
# [3] = test system: anti-MPO antibodies of immunized DR2 Tg mice; experiment: Epitope excision MS of IgG from immunized DR2 Tg mice with recombinant mouse MPO; type: binding; conditions: DR2 Tg mice immunized with MPO aa442-460
# Protocol: as §1
# As HLA-MHC II help shape the B and T cell repertoires, and consequently the response to foreign and self-antigens, we wanted to define the epitope specificity of the anti-MPO autoantibodies that could be induced experimentally using DR2 Tg mice. In this way, we could assess development of the anti-MPO antibody response after immunization of a single epitope in the context of a human MHC II. IgG from sera of immunized mice was profiled for anti-MPO epitope specificity using epitope excision MS. DR2 Tg mice developed antibodies targeting the human B cell epitope aa447-459 which is within a conserved region of both murine and human MPO. Unpredictably, immunized DR2 Tg mice initiated a polyclonal response producing autoantibodies against the entire MPO molecule. The epitope profile was astonishingly similar to that of the MPO-ANCA human profile (Table 6), indicative of the critical nature of this epitope.
# MPO-ANCA [4] = experiment: Epitope excision MALDI-TOF/TOF MS of patient and healthy Ig with native MPO; type: binding; parameters: key: HC: Healthy control; Active disease; Remission; conditions: human Ig
# Excerpt: Total immunoglobulin (IgG) was purified from sera using protein A/G PLUS-Agarose Reagent according to commercial protocol (Santa Cruz Biotechnology). Purified IgG was immobilized on CNBr-activated Sepharose 4B (GE Healthcare) in compact reaction columns (CRC, USB Corporation) and exposed to native MPO protein (MPO, Elastin Products Co, Inc) followed by digestion with sequencing grade TPCK-treated trypsin (Worthington). MPO-peptides remaining bound to IgG after digestion were eluted with 0.1% trifluoro acetic acid and analyzed on a 4800 Plus Matrix-Assisted Laser Desorption Ionization Time of Flight Mass Spectrometry (MALDI TOF/TOF MS/MS) in conjunction with ProteinPilot software (AB SCIEX).
# To identify epitopes of low titer autoantibodies, ^18O labeling (Mirza et al., J. Proteome Res. 7:3042 (2008)) was used to differentiate between the signal and the noise in the MS and MSMS spectra using the 4 Da shifts between the corresponding spectra of labeled and non-labeled peptides. Mass spectrometry analysis for epitopes recognized by MPO autoantibodies from healthy individuals, and for detection of low ANCA titers in remission samples required the use of isotope H2^18O to increase sensitivity (Cambridge Isotope Laboratories). Samples from healthy individuals (n=10) and MPO-ANCA patients in clinical remission (n=35) were processed in the presence of H2^18O. Incorporation of H2^18O on the carboxyl terminus of each proteolytic fragment of MPO during tryptic digestion, trypsin buffer was made with the isotope H2^18O as a diluent.
# MPO-ANCA positive patients (n=45) from the University of North Carolina cohort (UNC) were analyzed in the initial studies. Demographics of the cohort (Table 2) indicate a predominantly Caucasian group. Approximately 40% are diagnosed with microscopic polyangiitis (MPA), 40% with renal-limited disease and 20% are diagnosed with granulomatosis with polyangiitis (GPA). To compare epitope specificities related to disease activity, longitudinal samples were analyzed to include active disease (n=52) and remission (n=35) from the UNC cohort (Tables 3 and 4). Ten healthy subjects were included in the analyses. Purified immunoglobulin (Ig) from sera samples was subjected to analysis by epitope excision MALDI-TOF/TOF mass spectrometry (depicted in FIG. 3A) to identify epitope profiles of autoantibodies reactive with MPO. In order to epitope map low titer anti-MPO antibodies from healthy subjects and from patients in disease remission, an approach was designed using the ^16O-to-^18O exchange technique, an adaptation of a proteomics-based quantification method (Mirza et al., J. Proteome Res. 7:3042 (2008)). Incorporation of H2^18O on the carboxyl termini of proteolytic fragments produces a 4 Da mass shift in the MS spectra, decipherable from background noise. MPO epitopes unique to Ig from patients with active disease were designated ‘exclusive to active disease’; epitopes identified in remission samples were designated ‘persistent during remission’; and those present in samples from healthy subjects were designated asymptomatic or ‘natural’.
# DR2 Tg mice = experiment: Actively induced anti-MPO associated glomerulonephritis (peptide immunization); type: in vivo, mouse; conditions: day 28
# Protocol: DR2 Tg mice (Ooi et al., Proc. Natl. Acad. Sci. USA 109:E2615 (2012); Rich et al., Eur. J. Immunol. 34:1251 (2004)) were immunized s.c. with 3×100 μg of peptide antigen (OVA323-339, n=4 or MPO442-460, n=10) first in FCA then FIA on days 0, 7 and 14. Mice were culled on day 28.
# For indirect immunofluorescence, ethanol fixed thioglycolate induced peritoneal neutrophils were cytospun onto slides, purified serum IgG (1 mg/ml) was applied for 20 minutes then anti-mouse IgG Ab was detected using FITC conjugated anti-mouse IgG Ab (Silenus) (Ooi et al., Proc. Natl. Acad. Sci. USA 109:E2615 (2012); Lock, J. Clin. Pathol. 47:4 (1994)). Albuminuria was assessed by ELISA (Bethyl Laboratories) and haematuria assessed by urine test strips (Combur) from a 24 hour urine sample. Blood urea nitrogen (BUN) was measured using standard laboratory methods on serum collected at the end of experiment. Glomerular abnormalities assessed, on […], PAS stained, formalin fixed, paraffin embedded sections (≧50 glomeruli/mouse), were thickening of the capillary walls and mesangial hypercellularity (Ooi et al., J. Am. Soc. Nephrol. 20:980 (2009)). Total glomerular cell nuclei were enumerated (≧20 glomeruli/mouse). Glomerular neutrophils were detected by immunoperoxidase staining of 6 μm thick, periodate lysine paraformaldehyde fixed, frozen kidney sections using anti-Gr-1 antibodies (RB6-8C5).
# [5] = test system: anti-MPO^447-459 autoantibody; experiment: Epitope masking ELISA with ceruloplasmin and its fragments; type: binding, human
# Excerpt: Serum proteins that bound immobilized MPO peptide aa447-459 were eluted and sequenced for identification. […] Sequenced on a 4800 MALDI TOF-TOF, the protein was identified as ceruloplasmin (CP), and confirmed by western blot analysis probed with a rabbit anti-human anti-CP polyclonal antibody (Abeam). Native CP was purchased (Enzo Life Science) and proteolytically digested in vitro by plasmin (Haemtech).
# (§2) To isolate the putative serum factor, immobilized MPO aa447-459 peptide was used as bait to fish-out host proteins with binding capacity. […] However, the CP bound to aa447-459 was primarily a 50 kD protein on sodium dodecyl sulfate polyacrylamide gel electrophoresis (SDS-PAGE), while full length CP is 151 kD (FIG. 6D). An anti-ceruloplasmin western blot confirmed the fragment to be a portion of CP (FIG. 6E). To test the role of proteolytic cleavage in generating the blocking factor, a plasmin-generated fragment of CP (Kingston et al., Proc. Natl. Acad. Sci. USA 74:5377 (1977)) was tested for epitope masking capability (FIG. 6F).
# [6] = test system: MPO-ANCA IgG (polyclonal); experiment: Effect of CP on binding of polyclonal MPO-ANCA Ig to native MPO (ELISA); parameters: species or system human; conditions: MPO-ANCA IgG from four patients
# Excerpt: as §2
molecule,measurement,setting,value
RKIVGAMVQIITY (listed as Homo sapiens) [aa447-459],level of ELISA reactivity versus disease activity,"MPO-ANCA [1]; ANCA-negative patients, UNC (n=4) and NL (n=5), longitudinal","corresponded well with disease activity, declining to low levels as patients entered disease remission"
same,share of MPO-ANCA positive AAV patients with active disease in whom the epitope was identified,"MPO-ANCA [1]; MPO-ANCA positive AAV, active disease",~50%
same,"reactivity by ELISA, share of patient samples","MPO-ANCA [1]; NL population, active disease",52.2%
same,"reactivity by ELISA, share of patient samples","MPO-ANCA [1]; UNC MPO-ANCA patient samples, active disease",42.9%
same,ELISA reactivity in clinical remission,"MPO-ANCA [1]; UNC and NL cohorts, remission samples",Reactivity declined in clinical remission
same,"MPO-ANCA specific for the epitope detected by ELISA, patients positive/tested",MPO-ANCA [1]; ANCA-negative NL AAV patients,6/11
same,"MPO-ANCA specific for the epitope detected by ELISA, patients positive/tested",MPO-ANCA [1]; ANCA-negative UNC AAV patients,8/10
same,peptide eluted from ANCA-negative Ig (MS),[2],A sole peptide was eluted and identified
same,Epitopes found in immunized mice,[3],RKIVGAMVQIITY
same,"Found in samples: Healthy control, Active disease, or Remission, (HC, A, R)",MPO-ANCA [4]; Table 1,A
same,"Found in samples: Healthy control, Active disease, or Remission, (HC, A, R)",MPO-ANCA [4]; Table 6,A
same,glomerular disease,DR2 Tg mice,develop glomerulonephritis
thrombin [reference compound],generation of a functional (blocking) ceruloplasmin fragment by serum proteases,[5],did not
urokinase [reference compound],generation of a functional (blocking) ceruloplasmin fragment by serum proteases,[5],produced a functional fragment
B1,decrease of anti-MPO^447-459 autoantibody reactivity,"[5]; ELISA, n=8",30-50%
same,effect on binding of polyclonal MPO-ANCA Ig to native MPO,[6],did not affect the overall binding
